How the values were obtained:
Dihydrofolate reductase [1] = biological target: T1, Dihydrofolate reductase (Rattus norvegicus, UniProt Q920D2)
T1 sequence (Q920D2 whole entry): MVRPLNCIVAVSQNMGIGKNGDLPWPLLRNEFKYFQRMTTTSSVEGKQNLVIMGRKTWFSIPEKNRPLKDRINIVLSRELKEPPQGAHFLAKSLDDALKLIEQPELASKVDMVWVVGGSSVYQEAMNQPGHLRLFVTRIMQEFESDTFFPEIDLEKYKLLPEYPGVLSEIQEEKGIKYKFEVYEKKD

Thymidylate synthase [2] = biological target: T2, Thymidylate synthase (Homo sapiens, UniProt P04818); experiment: Inhibition of human thymidylate synthase
Target sequence in this assay (P04818 whole entry): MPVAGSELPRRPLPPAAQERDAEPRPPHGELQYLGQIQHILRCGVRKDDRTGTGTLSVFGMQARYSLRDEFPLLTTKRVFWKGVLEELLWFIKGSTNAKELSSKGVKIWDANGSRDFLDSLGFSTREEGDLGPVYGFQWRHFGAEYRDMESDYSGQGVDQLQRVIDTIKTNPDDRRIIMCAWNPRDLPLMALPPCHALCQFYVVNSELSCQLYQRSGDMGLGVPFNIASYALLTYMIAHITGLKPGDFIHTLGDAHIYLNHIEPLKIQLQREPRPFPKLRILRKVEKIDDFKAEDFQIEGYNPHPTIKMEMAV

Dihydrofolate reductase [3] = biological target: T3, Dihydrofolate reductase (Pneumocystis carinii, UniProt P16184)
T3 sequence (P16184 whole entry): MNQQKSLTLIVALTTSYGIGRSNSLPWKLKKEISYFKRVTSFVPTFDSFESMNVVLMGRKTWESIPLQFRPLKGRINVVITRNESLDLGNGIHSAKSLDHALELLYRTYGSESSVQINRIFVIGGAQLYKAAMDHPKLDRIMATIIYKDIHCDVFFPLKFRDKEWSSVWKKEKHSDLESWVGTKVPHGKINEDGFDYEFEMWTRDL
Description: (§1) Inhibition of Pneumocystis carinii DHFR using dihydrofolic acid substrate and NADPH cofactor

Dihydrofolate reductase [4] = biological target: T4, Dihydrofolate reductase (Homo sapiens, UniProt P00374)
T4 sequence (P00374 whole entry): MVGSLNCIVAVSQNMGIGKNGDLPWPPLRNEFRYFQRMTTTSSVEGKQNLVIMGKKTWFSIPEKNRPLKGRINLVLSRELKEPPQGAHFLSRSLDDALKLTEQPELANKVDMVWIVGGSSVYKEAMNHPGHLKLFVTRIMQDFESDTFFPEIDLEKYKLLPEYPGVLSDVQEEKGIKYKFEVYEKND

Thymidylate synthase [5] = biological target: Thymidylate synthase (Escherichia coli, UniProt C3SWJ7); experiment: Inhibition of Escherichia coli thymidylate synthase
Thymidylate synthase (Escherichia coli, UniProt C3SWJ7), sequence (C3SWJ7 whole entry): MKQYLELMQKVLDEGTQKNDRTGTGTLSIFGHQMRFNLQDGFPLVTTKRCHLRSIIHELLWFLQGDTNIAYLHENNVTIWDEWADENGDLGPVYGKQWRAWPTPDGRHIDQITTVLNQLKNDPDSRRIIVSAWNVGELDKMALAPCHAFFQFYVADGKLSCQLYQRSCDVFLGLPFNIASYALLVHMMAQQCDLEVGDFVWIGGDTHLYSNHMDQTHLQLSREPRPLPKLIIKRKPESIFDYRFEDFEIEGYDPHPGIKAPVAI

Thymidylate synthase [6] = biological target: T2, Thymidylate synthase; experiment: Inhibition of human thymidylate synthase at >[…] uM
Target sequence in this assay (P04818 2-313 limits assumed): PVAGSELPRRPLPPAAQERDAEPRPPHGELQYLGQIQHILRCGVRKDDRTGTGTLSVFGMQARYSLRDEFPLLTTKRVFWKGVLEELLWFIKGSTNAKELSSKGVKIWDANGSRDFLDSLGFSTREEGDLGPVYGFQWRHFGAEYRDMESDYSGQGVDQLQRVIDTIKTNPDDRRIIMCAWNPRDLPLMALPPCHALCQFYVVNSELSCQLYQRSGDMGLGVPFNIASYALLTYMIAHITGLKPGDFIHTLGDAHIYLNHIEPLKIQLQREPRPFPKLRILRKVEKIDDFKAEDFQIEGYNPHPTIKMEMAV

[7] = biological target: T5, Bifunctional dihydrofolate reductase-thymidylate synthase (Toxoplasma gondii, UniProt Q07422); experiment: Inhibition of Toxoplasma gondii thymidylate synthase
T5 sequence (Q07422 whole entry): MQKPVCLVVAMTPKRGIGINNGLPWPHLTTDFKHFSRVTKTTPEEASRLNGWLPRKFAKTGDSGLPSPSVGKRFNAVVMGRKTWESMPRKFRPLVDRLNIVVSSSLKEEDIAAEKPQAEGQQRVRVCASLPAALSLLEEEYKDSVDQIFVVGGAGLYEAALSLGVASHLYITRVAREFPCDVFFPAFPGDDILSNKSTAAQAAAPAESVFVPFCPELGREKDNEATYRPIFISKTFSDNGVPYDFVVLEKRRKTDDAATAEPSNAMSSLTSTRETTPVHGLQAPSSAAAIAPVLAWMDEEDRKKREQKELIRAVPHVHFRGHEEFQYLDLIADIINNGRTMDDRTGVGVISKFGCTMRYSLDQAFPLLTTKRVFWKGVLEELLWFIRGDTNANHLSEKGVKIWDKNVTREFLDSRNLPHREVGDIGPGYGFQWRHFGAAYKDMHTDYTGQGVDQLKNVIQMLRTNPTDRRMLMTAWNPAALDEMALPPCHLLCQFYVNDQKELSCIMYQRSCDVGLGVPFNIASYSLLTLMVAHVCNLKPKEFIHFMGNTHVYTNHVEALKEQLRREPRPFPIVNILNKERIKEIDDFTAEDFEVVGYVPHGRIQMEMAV

[8] = biological target: Thymidylate synthase (Escherichia coli) (UniProt C3SWJ7); experiment: Inhibition of Escherichia coli thymidylate synthase at >[…] uM
Thymidylate synthase (Escherichia coli), sequence (C3SWJ7 1-264): as the sequence (C3SWJ7 whole entry) above

[9] = biological target: T6, Dihydrofolate reductase (Homo sapiens) (UniProt P00374); experiment: Inhibition of human dihydrofolate reductase at >[…] uM
T6 sequence (whole entry): T4 sequence (P00374 whole entry)

[10] = biological target: T5, Bifunctional dihydrofolate reductase-thymidylate synthase; experiment: Inhibition of Toxoplasma gondii dihydrofolate reductase
[11] = biological target: T7, Bifunctional dihydrofolate reductase-thymidylate synthase (Toxoplasma gondii) (UniProt Q07422); experiment: Inhibition of Toxoplasma gondii thymidylate synthase at >[…] uM
T7 sequence (whole entry): T5 sequence (Q07422 whole entry)

Thymidylate synthase [12] = biological target: T2, Thymidylate synthase; experiment: Inhibition of human thymidylate synthase at >23 uM
Target sequence in this assay (P04818 2-313 limits assumed): as the sequence (P04818 2-313 limits assumed) above

[13] = biological target: T6, Dihydrofolate reductase (Homo sapiens); experiment: Inhibition of human dihydrofolate reductase at >28 uM
786-0 = experiment: cells; conditions: Homo sapiens
MOLT-4 = experiment: cells; conditions: Homo sapiens
Description: Cytotoxicity against human MOLT4 cells

K562 = experiment: cells; conditions: Homo sapiens
Description: Cytotoxicity against human K562 cells

NCI-H460 = experiment: cells; conditions: Homo sapiens
Description: Cytotoxicity against human NCI-H460 cells

HT-29 = experiment: cells; conditions: Homo sapiens
Description: Cytotoxicity against human HT29 cells

SF-268 = experiment: cells; conditions: Homo sapiens
Description: Cytotoxicity against human SF268 cells

MCF7 = experiment: cells; conditions: Homo sapiens
Description: Cytotoxicity against human MCF7 cells

PC-3 = experiment: cells; conditions: Homo sapiens
Description: Cytotoxicity against human PC3 cells

ACHN = experiment: cells; conditions: Homo sapiens
Description: Cytotoxicity against human ACHN cells

SW-620 = experiment: cells; conditions: Homo sapiens
Description: Cytotoxicity against human SW620 cells

LOX IMVI = experiment: cells; conditions: Homo sapiens
Description: Cytotoxicity against human LOXIMVI cells

CAKI-1 = experiment: cells; conditions: Homo sapiens
Description: Cytotoxicity against human CAKI1 cells

cells = conditions: Homo sapiens, HL-60
Description: Cytotoxicity against human HL60(TB) cells

[14] = biological target: Dihydrofolate reductase (Pneumocystis carinii) (UniProt P16184); experiment: Inhibition of Pneumocystis carinii DHFR at […] using dihydrofolic acid substrate and NADPH cofactor
Dihydrofolate reductase [15] = biological target: T3, Dihydrofolate reductase; remark: listed apart in the source
Description: as §1

Dihydrofolate reductase [16] = biological target: T1, Dihydrofolate reductase; remark: listed apart in the source
[17] = biological target: T6, Dihydrofolate reductase (Homo sapiens); experiment: Inhibition of human dihydrofolate reductase at >30 uM
[18] = biological target: Dihydrofolate reductase (Pneumocystis carinii) (UniProt P16184); experiment: Inhibition of Pneumocystis carinii DHFR at 22 uM using dihydrofolic acid substrate and NADPH cofactor
[19] = biological target: Thymidylate synthase (Escherichia coli) (UniProt C3SWJ7); experiment: Inhibition of Escherichia coli thymidylate synthase at >14 uM
Thymidylate synthase [20] = biological target: T2, Thymidylate synthase; experiment: Inhibition of human thymidylate synthase at >14 uM
Target sequence in this assay (P04818 2-313 limits assumed): as above

Row | Compound | IC50 (Dihydrofolate reductase [1]) | IC50 (Thymidylate synthase [2]) | IC50 (Dihydrofolate reductase [3]) | IC50 (Dihydrofolate reductase [4]) | IC50 (Thymidylate synthase [5]) | inhibition (Thymidylate synthase [6]) | IC50 [7] | inhibition [8] | IC50 [10] | inhibition [11] | other results
1 | CCCc1c(Sc2c(C)cccc2C)[nH]c2nc(N)nc(N)c12 | 2.43 µM | > 24 µM | 5.32 µM | 3 µM | > 24 µM |  |  |  |  |  | 
2 | CCCc1c(Sc2ccc(OC)c(OC)c2)[nH]c2nc(N)nc(N)c12 | 3.45 µM | > 11 µM | 8.45 µM | > 26 µM | > 11 µM | 0% | > 11 µM | 0% | 1 µM |  | inhibition [9]: 35%
3 | COc1ccc(Sc2[nH]c3nc(N)nc(N)c3c2C(C)C)cc1OC | 4.6 µM | > 23 µM | 28.2 µM | 27 µM | > 2.3 µM |  | > 2.3 µM | 0% | 2.7 µM | 0% | inhibition (Thymidylate synthase [12]): 0%
4 | COc1ccc(OC)c(Sc2[nH]c3nc(N)nc(N)c3c2C(C)C)c1 | 50.3 µM | > 23 µM | 35.6 µM | > 28 µM | > 2.3 µM |  | > 2.3 µM | 0% | 1.4 µM | 0% | inhibition (Thymidylate synthase [12]): 0%; inhibition [13]: 0%
5 | CCCc1c(Sc2ccc(C(=O)N[C@@H](CCC(=O)O)C(=O)O)cc2)[nH]c2nc(N)nc(N)c12 | 0.06 µM |  | 0.00311 µM |  |  |  |  |  |  |  | GI50 (786-0): 0.0128 µM; GI50 (MOLT-4): 19.4 µM; GI50 (K562): 0.952 µM; GI50 (NCI-H460): 0.267 µM; GI50 (HT-29): 9.58 µM; GI50 (SF-268): 1.61 µM; GI50 (MCF7): 0.164 µM; GI50 (PC-3): > 100 µM; GI50 (ACHN): 15.2 µM; GI50 (SW-620): 1.21 µM; GI50 (LOX IMVI): < 0.01 µM; GI50 (CAKI-1): 0.376 µM; GI50 (cells): 1.28 µM
6 | CC(C)c1c(Sc2cccc3ccccc23)[nH]c2nc(N)nc(N)c12 | 0.91 µM | > 12 µM | 0.68 µM | > 29 µM | > 12 µM | 0% | > 12 µM |  | 0.12 µM | 0% | 
7 | CCCc1c(Sc2ccc3ccccc3c2)[nH]c2nc(N)nc(N)c12 | 3.8 µM | > 12 µM |  | > 15 µM | > 12 µM | 0% | > 15 µM |  | 0.15 µM |  | inhibition [14]: 16%; IC50 (Dihydrofolate reductase [15]): 3.5 µM; inhibition [9]: 30%
8 | CCCc1c(Sc2cc(OC)ccc2OC)[nH]c2nc(N)nc(N)c12 | 8.9 µM |  | 10.4 µM | > 28 µM | > 12 µM | 0% |  |  |  | 0% | inhibition [13]: 13%
9 | CCc1c(Sc2ccccc2)[nH]c2nc(N)nc(N)c12 |  |  |  |  |  |  |  |  |  |  | IC50 (Dihydrofolate reductase [15]): 21.8 µM; IC50 (Dihydrofolate reductase [16]): 5.6 µM
10 | CCCc1c(Sc2cccc3ccccc23)[nH]c2nc(N)nc(N)c12 | 6.5 µM | > 12 µM | 8.6 µM | > 29 µM | > 12 µM | 0% | > 12 µM |  | 0.058 µM | 16% | 
11 | COc1ccc(OC)c(Cc2sc3nc(N)nc(N)c3c2C)c1 |  |  |  |  |  |  |  |  | 0.07 µM |  | 
12 | CC(C)c1c(Sc2ccc3ccccc3c2)[nH]c2nc(N)nc(N)c12 | 2.1 µM | > 24 µM | 7.1 µM | > 29 µM | > 2.4 µM | 39% | > 2.4 µM | 0% | 1.5 µM |  | 
13 | Cc1cccc(C)c1Sc1[nH]c2nc(N)nc(N)c2c1C(C)C | 14.8 µM | > 13 µM |  | > 30 µM | > 13 µM |  | > 13 µM | 0% | 0.3 µM | 0% | inhibition [17]: 10%
14 | COc1ccc(Sc2[nH]c3nc(N)nc(N)c3c2C(C)C)cc1 | 1.9 µM | > 25 µM |  | 30 µM | > 2.5 µM |  | > 2.5 µM | 0% | 0.6 µM |  | 
15 | CCc1c(Sc2cc(OC)ccc2OC)[nH]c2nc(N)nc(N)c12 |  |  |  |  |  |  |  |  |  |  | IC50 (Dihydrofolate reductase [15]): 6.04 µM; IC50 (Dihydrofolate reductase [16]): 4.05 µM
16 | CCCc1c(Sc2ccc(OC)cc2)[nH]c2nc(N)nc(N)c12 | 1.25 µM | > 13 µM | 4.21 µM | > 30 µM | > 13 µM |  | > 13 µM | 0% | 0.23 µM | 12% | inhibition [17]: 15%
17 | CC(C)c1c(Sc2ccccc2)[nH]c2nc(N)nc(N)c12 | 2 µM | > 27 µM | 11.2 µM | 16 µM | > 2.7 µM | 0% | > 2.7 µM | 0% | 0.064 µM | 0% | 
18 | CCCc1c(Sc2c(Cl)cccc2Cl)[nH]c2nc(N)nc(N)c12 | 5.95 µM | > 22 µM | 5.35 µM | 2.6 µM | > 22 µM |  |  | 0% |  |  | 
19 | CC(C)c1c(Sc2ccc(Cl)c(Cl)c2)[nH]c2nc(N)nc(N)c12 | 13.5 µM | > 23 µM | 10.9 µM | > 27 µM | > 2.3 µM |  | > 2.3 µM | 0% | 1.4 µM | 0% | inhibition (Thymidylate synthase [12]): 14%; inhibition [9]: 0%
20 | CC(C)c1c(Sc2c(Cl)cccc2Cl)[nH]c2nc(N)nc(N)c12 | 2.4 µM | > 22 µM |  | > 26 µM | > 2.2 µM |  | > 2.2 µM |  | 0.52 µM |  | inhibition [18]: 14%; IC50 (Dihydrofolate reductase [15]): 22 µM; inhibition [9]: 37%
21 | CCCc1c(Sc2ccccc2)[nH]c2nc(N)nc(N)c12 |  | > 14 µM | 4.21 µM | 33 µM | > 14 µM |  | > 1.4 µM |  | 0.12 µM |  | inhibition [19]: 0%; inhibition (Thymidylate synthase [20]): 0%
